10 compounds from EP4818176A1, “TETRACYCLIC DERIVATIVE INHIBITOR, AND PREPARATION METHOD AND USE THEREFOR” (Shanghai Hansoh Biomedical Co., Ltd., priority 2023, dated 2025) can be followed below.

For series [1], the target named is T1, PRMT5/MEP50-MTA protein complex (Homo sapiens, UniProt O14744).
T1 construct: purchased Viva Biotech
Put plainly: Thermal shift assay: thermal stability (melting temperature) of PRMT5/MEP50-MTA protein complex. The conditions noted are these: final compound concentration 8 µM; 2 µM PRMT5/MEP50, 2 µM MTA; Tm minus Tm of DMSO vehicle control. The format is binding. The text has this: Test Example 1: Determination of the ability of the compounds of the present invention to improve the thermal stability (melting temperature) of the PRMT5/MEP50-MTA protein complex.
1 Experimental objective: The objective of this test example is to determine the ability of the compound to improve the thermal stability of the PRMT5/MEP50-MTA protein complex, resulting in an increase in the protein melting temperature. 2 Experimental instruments: Quantitative PCR instrument (Quantstudio6 Flex) was purchased from Life Technologies; pipettes were purchased from Eppendorf or Rainin. 3 Experimental reagents and consumables: PRMT5/MEP50 protein was prepared by Viva Biotech; HEPES was purchased from Thermo Fisher Scientific (Cat. No. 15630080); DTT was purchased from Sigma (Cat. No. 43816-10ml); sodium chloride was purchased from Invitrogen (Cat. No. AM9760G); Protein Thermal Shift™ Dye Kit was purchased from Thermo Fisher Scientific (Cat. No. 4461146); methylthioadenosine (MTA) was purchased from Sigma (Cat. No. D5011). 4 Experimental method: In this experiment, the thermal shift method was used to measure the change in the melting temperature (Tm) of the PRMT5/MEP50-MTA protein complex before and after compound binding, thereby characterising the ability of the compound to improve the thermal stability of the PRMT5/MEP50-MTA protein complex. A solution containing 50 mM HEPES, 10 mM DTT, 2 µM MTA, SYPRO Orange and 250 mM NaCl was prepared as the experimental buffer. Human PRMT5/MEP50 protein was added to a final concentration of 2 µM, and the mixture was incubated at room temperature for 30 minutes. The above reaction mixture was aliquoted into 8-strip PCR tubes at 19.5 µL per tube. Then 0.5 µL of test compound or DMSO was added to each tube, providing a total reaction volume of 20 µL and a final compound concentration of 8 µM. 2.5% DMSO was set as the vehicle control. After incubation at room temperature for 10 minutes, the PCR tubes were placed in a PCR instrument, and the melt curve function was selected to measure the melting temperature of the PRMT5/MEP50-MTA protein complex in different treatment groups (heated from 25°C to 95°C, 0.03°C/s). 5 Experimental data processing method: The experimental data files from the PCR instrument were imported into the thermal shift software to obtain the melting temperature (Tm) for each treatment group.

Series [2] in a line: Pharmacokinetics in rats (plasma) after oral administration. The conditions noted are these: rat, po, SD rats, p.o. 5 mg/kg; for Cmax: read-out: Cmax; for MRT inf: read-out: MRT0-∞; for Tmax: read-out: tmax. The format is in vivo.
Protocol: Test Example 4: Determination of the pharmacokinetics of the compounds of the present invention in rats (plasma) after oral administration.
1 Study objective: SD rats were used as test animals to study the pharmacokinetic behaviour of the following example compounds in rats (plasma) after oral administration at a dose of 5 mg/kg. 2 Test scheme • 2.1 Test drugs: Vehicle formula: 0.5% CMC-Na (1% Tween 80); the examples of the present invention, made in house. • 2.2 Test animals: 3 SD rats per group, male, purchased from Shanghai Bikai Keyi Biotechnology Co., Ltd., with animal license number (SCXK (Shanghai) 2018-0006, No.20180006037467). • 2.3 Administration: 3 SD rats per group, male, were fasted overnight and then respectively administered PO at a dose of 5 mg/kg and a volume of 10 mL/kg. • 2.4 Sample collection: 0.2 mL of blood was collected from the jugular vein of rats before administration and at 0, 0.25, 0.5, 1, 2, 4, 6, 8 and 24 h after administration, and placed in EDTA-K2test tubes, and the test tubes were centrifuged at 6,000 rpm at 4°C for 6 min to separate the plasma, which was stored at -80°C. The animals were fed 4 h after administration. • 2.5 Sample treatment • 1) 160 uL of acetonitrile was added to 40 uL of plasma sample for precipitation, and after mixing, the mixture was centrifuged at 3,500 × g for 5-20 minutes. • 2) 100 uL of the treated supernatant solution was taken for LC/MS/MS analysis to determine the concentration of the test compounds. • 2.6 Liquid phase analysis • Liquid phase conditions: Shimadzu LC-20AD pump;mass spectrometry conditions: AB Sciex API 4000 mass spectrometer • Chromatographic column: Phenomenex Gemiu 5 um C18 50 × 4.6 mm • Mobile phase: solution A: 0.1% formic acid in water, solution B: methanol • Flow rate: 1.0 mL/min, elution time: 0-4.0 min, with eluents as follows:
Experimental results and analysis: The main pharmacokinetic parameters were calculated using WinNonlin 8.2.
The subject of series [3] is MTAP Knockout HCT116 cells. Nature of the series: Cell proliferation inhibition (CellTiter-Glo), HCT116 MTAP knockout cells. The conditions noted are these: for Selectivity: HCT116 IC50 versus MTAP Knockout HCT116 IC50. The format is cell-based. An excerpt:
(§1) Test Example 2: Determination of the inhibitory effect of the compounds of the present invention on the proliferation activity of HCT116 and MTAP Knockout HCT116 cells.
(§2) 1 Experimental objective: The objective of this test example is to determine the inhibitory effect of the compound on the proliferation activity of HCT116 wild-type and HCT116 MTAP knockout cells. 2 Experimental instruments: Centrifuge (Eppendorf 5810R); microplate reader (BioTek Synergy H1 or PerkinElmer Envision); pipette (Eppendorf or Rainin). 3 Experimental reagents: HCT116 and MTAP Knockout HCT116 cells were purchased from Nanjing Cobioer; Cell Titer-Glo was purchased from Promega (Cat. No. G7573); McCoy'5A was purchased from Gibco (Cat. No. 12330031); FBS was purchased from Gibco (Cat. No. 10091148); PBS was purchased from Gibco (Cat. No. 10010023); trypsin was purchased from Gibco (Cat. No. 25200056); cell culture plates were purchased from Corning (Cat. No. 3610). 4 Experimental method: HCT116 and MTAP Knockout HCT116 cells were cultured in McCoy'5A medium containing 10% FBS until an appropriate cell density was reached. The cells were then collected and adjusted to a suitable concentration using complete medium. The cell suspension was seeded into a 96-well plate at 90 µL per well and allowed to adhere overnight in a 37°C, 5% CO2 incubator. Compound solutions of various concentrations were prepared using DMSO and culture medium, with a vehicle control set. The compound solutions were added to the 96-well plate at 10 µL per well, and the plate was incubated in a 37°C, 5% CO2 incubator for an additional 72-240 hours. After incubation, CellTiter-Glo solution was added, and the mixture was mixed uniformly by shaking, followed by incubation in the dark for 10 to 30 minutes. Luminescence was measured using a Synergy H1 or Envision microplate reader. 5 Experimental data processing method: The inhibition rate was calculated using the luminescence signal values, and the concentrations along with the inhibition rates were subjected to non-linear regression curve fitting using Graphpad Prism software to obtain the IC50 values.
(In general: ATP-based viability assays read luminescence as a measure of living cells.)

The next series relates to HCT116 wild-type cells. Nature of the series: Cell proliferation inhibition (CellTiter-Glo), HCT116 wild-type cells. The format is cell-based.
Excerpt: as §1, §2

Where [4] appears, read: Homo sapiens, HCT-116, MTAP Knockout HCT116 cells, proliferation inhibition, Cell Titer-Glo, read-out: MTAP Knockout HCT116 IC50.
[5] abbreviates: Homo sapiens, HCT-116, HCT116 wild-type cells, proliferation inhibition, Cell Titer-Glo, read-out: HCT116 IC50.
Setting [6] is: Homo sapiens, HCT-116, read-out: MTAP Knockout HCT116 IC50.
Setting [7] is: Homo sapiens, HCT-116, read-out: HCT116 IC50.

Read-outs that look alike come from different tables or passages of the source.

By ΔTm is commonly meant the change in melting temperature against a reference sample. Broadly, the AUC(0-inf) is total exposure, with the tail of the curve extrapolated. Read a low AUC(0-inf) as low exposure. Usually half-life stands for how long it takes for the measured level to halve. Low values mean rapid decline, high ones slow decline. Usually Cmax stands for the peak of the concentration-time curve. Broadly, the Tmax is the time at which the peak concentration occurs. Usually IC50 stands for the concentration at which inhibition is half-maximal.

T1 sequence (O14744 whole entry): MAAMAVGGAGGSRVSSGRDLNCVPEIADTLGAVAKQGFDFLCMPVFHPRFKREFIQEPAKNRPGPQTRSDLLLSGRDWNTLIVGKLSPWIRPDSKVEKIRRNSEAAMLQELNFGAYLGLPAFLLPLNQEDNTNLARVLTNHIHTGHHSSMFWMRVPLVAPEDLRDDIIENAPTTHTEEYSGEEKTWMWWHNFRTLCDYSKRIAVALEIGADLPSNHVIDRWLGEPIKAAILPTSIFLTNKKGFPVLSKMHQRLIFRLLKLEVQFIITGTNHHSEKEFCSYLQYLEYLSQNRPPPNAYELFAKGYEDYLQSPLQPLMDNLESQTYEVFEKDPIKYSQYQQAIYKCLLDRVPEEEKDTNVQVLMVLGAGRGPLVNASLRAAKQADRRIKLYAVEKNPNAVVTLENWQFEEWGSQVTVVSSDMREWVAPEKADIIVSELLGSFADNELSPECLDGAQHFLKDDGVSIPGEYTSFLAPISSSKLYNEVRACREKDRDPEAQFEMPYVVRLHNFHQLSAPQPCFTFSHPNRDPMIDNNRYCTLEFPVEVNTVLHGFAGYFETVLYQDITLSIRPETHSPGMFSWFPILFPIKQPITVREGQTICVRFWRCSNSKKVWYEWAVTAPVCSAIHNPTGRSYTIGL
T1 sequence (Q9BQA1 whole entry partner): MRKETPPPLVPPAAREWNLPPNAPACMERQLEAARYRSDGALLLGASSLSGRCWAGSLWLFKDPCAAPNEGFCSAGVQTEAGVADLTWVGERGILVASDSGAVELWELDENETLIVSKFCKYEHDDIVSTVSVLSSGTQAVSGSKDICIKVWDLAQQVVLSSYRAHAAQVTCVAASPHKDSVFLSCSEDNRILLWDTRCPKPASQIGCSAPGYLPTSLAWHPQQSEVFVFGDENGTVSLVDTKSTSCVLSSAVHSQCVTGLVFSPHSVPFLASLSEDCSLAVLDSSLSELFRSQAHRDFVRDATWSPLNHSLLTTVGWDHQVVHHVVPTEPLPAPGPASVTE

With `Nc1nc2cc3c(cc2n2cncc12)C(=O)N(C1COc2cc(C(F)(F)F)ccc21)CCC/C=C\3` (racemic) [Example 164, (Z)-4-Amino-12-(6-(trifluoromethyl)-2,3-dihydrobenzofuran-3-yl)-9,10,11,12-tetrahydro-13H-azo[4,3-g]imidazo[1,5-a]quinoxalin-13-one], the ΔTm at 8 µM in series [1] stood at 11.2 °C. Moreover, in series [2] (in vivo), the AUC(0-inf) is 2520 ng·h/mL, the half-life was 4.7 h, the Cmax came out at 183 ng/mL and the MRT inf was found to be 7.6 h. Besides, the Tmax in series [2] (in vivo) came out at 4 h. In addition, the Selectivity in series [3] was found to be 406. In addition, the IC50 in series [3] (setting [4]) was 16 nM. The IC50 in the series with HCT116 wild-type cells (setting [5]) amounted to 6630 nM.
For `Nc1nc2cc3c(cc2c2c1COC2)C(=O)N(C1COCc2nc(C(F)(F)F)ccc21)CCC/C=C\3` (single isomer, unassigned) [Example 165-P1], in series [1], the ΔTm at 8 µM worked out at 11.9 °C. Besides, in series [2] (male), the AUC(0-inf) came to 999 ng·h/mL, the half-life was 1.5 h, the Cmax was determined as 321 ng/mL and the MRT inf was found to be 2.5 h. For the same compound, in series [2] (male), the Tmax was determined as 1 h. Besides, in series [3], the Selectivity amounted to 132. In addition, the IC50 in series [3] (setting [4]) turned out to be 5.2 nM. For the same compound, the IC50 in the series with HCT116 wild-type cells (setting [5]) was 682 nM.
In the case of `Nc1nc2cc3c(cc2n2cncc12)C(=O)N(Cc1ccc(S(F)(F)(F)(F)F)cn1)CCCOC3` [Example 414, 4-Amino-12-((5-(pentafluoro-λ^6-sulphanyl)pyridin-2-yl)methyl)-9,10,11,12-tetrahydroimidazo[1,5-a][1,5]oxazonino[8,7-g]quinoxalin-13(7H)-one], the ΔTm at 8 µM in series [1] turned out to be 12.3 °C. In addition, in series [2] (male), the AUC(0-inf) came to 949 ng·h/mL, the half-life was 1.3 h, the Cmax was 208 ng/mL and the MRT inf turned out to be 3.3 h. In series [2] (male), the Tmax turned out to be 2 h. In addition, in series [3], the Selectivity is 47. In series [3] (setting [4]), the IC50 worked out at 4.9 nM. In the series with HCT116 wild-type cells (setting [5]), the IC50 amounted to 229 nM.
Regarding `Nc1nc2cc3c(cc2n2cncc12)C(=O)N(Cc1ccc(C(F)(F)F)cn1)CC/C=C\3` [Example 416, (Z)-4-Amino-11-(5-(trifluoromethyl)pyridin-2-yl)methyl-10,11-dihydroazocino[4,3-g]imidazo[1,5-a]quinoxalin-12(9H)-one], in series [1], the ΔTm at 8 µM turned out to be 12.4 °C. For the same compound, in series [2] (male), the AUC(0-inf) worked out at 1520 ng·h/mL, the half-life was 1.3 h, the Cmax came to 395 ng/mL and the MRT inf came out at 2.9 h. Also, the Tmax in series [2] (male) is 2 h. Further, the Selectivity in series [3] was 93. In series [3] (setting [4]), the IC50 amounted to 2.4 nM. Besides, in the series with HCT116 wild-type cells (setting [5]), the half-maximal inhibitory concentration (IC50) stood at 222 nM.
In the case of `Nc1nc2cc3c(cc2c2c1COC2)C(=O)N(Cc1ccc(-c2c(F)cccc2F)cn1)CCCOC3` [Example 431, 4-Amino-12-(5-(2,6-difluorophenyl)pyridin-2-yl)methyl-3,7,9,10,11,12-hexahydrofuro[3,4-c][1,5]oxazolino[7,8-g]quinolin-13(1H)-one], the ΔTm at 8 µM in series [1] worked out at 12.3 °C. For the same compound, the Selectivity in series [3] worked out at 61. Further, the figures for the IC50 (in series [3] (setting [6]); with HCT116 wild-type cells (setting [7])) were 3.3 nM and 200 nM, respectively.
Turning to `CC1OCc2c1c(N)nc1cc3c(cc21)C(=O)N(Cc1ccc(-c2c(F)cccc2F)cn1)CCCNC3` (stereo not drawn) [Example 435, 4-Amino-12-((5-(2,6-difluorophenyl)pyridin-2-yl)methyl)-3-methyl-1,3,7,8,9,10,11,12-octahydro-13H-[1,5]diamine[7,8-g]furo[3,4-c]quinolin-13-one], in series [1], the ΔTm at 8 µM came to 12.8 °C. Moreover, in series [3], the Selectivity came to 41. Moreover, the 50% inhibitory concentration (IC50) in series [3] (setting [6]) was found to be 1.9 nM; in the series with HCT116 wild-type cells (setting [7]), 78 nM.
For the compound `Nc1nc2cc3c(cc2n2cncc12)C(=O)N(Cc1ccc(C24CC(C2)C4)cn1)CCCOC3` [Example 484, 4-Amino-12-((5-(bicyclo[1.1.1]pentan-1-yl)pyridin-2-yl)methyl)-9,10,11,12-tetrahydroimidazo[1,5-a][1,5]oxazolo[8,7-g]quinoxalin-13(7H)-one], in series [1], the ΔTm at 8 µM came out at 11.9 °C. Moreover, the Selectivity in series [3] was 38. The IC50 stood at 9.9 nM in series [3] (setting [4]) and 379 nM with HCT116 wild-type cells (setting [5]).
`Nc1nc2cc3c(cc2c2c1COC2)C(=O)N(Cc1ccc(C24CC(C2)C4)cn1)CCCOC3` [Example 510, 4-Amino-12-((5-(bicyclo[1.1.1]pentan-1-yl)pyridin-2-yl)methyl)-3,7,9,10,11,12-hexahydrofuro[3,4-c][1,5]oxazolo[7,8-g]quinolin-13(1H)-one]: in series [1], the ΔTm at 8 µM was found to be 11.3 °C. Besides, in series [3], the Selectivity is 66. For the same compound, the IC50 in series [3] (setting [6]) was 12 nM; with HCT116 wild-type cells (setting [7]), 771 nM.
Consider `C[C@H]1CCCN(Cc2ccc(C(F)(F)F)cn2)C(=O)c2cc3c(cc2C1)nc(N)c1cncn13` [Example 514-P2, (S)-4-amino-8-methyl-12-((5-(trifluoromethyl)pyridin-2-yl)methyl)-7,8,9,10,11,12-hexahydro-13H-azo[4,3-g]imidazo[1,5-a]quinoxalin-13-one], for which the thermal shift (ΔTm) at 8 µM in series [1] came to 11.6 °C. In addition, the Selectivity in series [3] is 71. Besides, the figures for the IC50 (in series [3] (setting [6]); in the series with HCT116 wild-type cells (setting [7])) were 14 nM and 1000 nM, respectively.
Turning to “(R, Z)-4-amino-12-(2-(trifluoromethyl)-5,8-dihydro-6H-pyrano[3,4-b]pyridin-5-yl)-9,10,11,12-tetrahydro-13H-aza[4,3-g]imidazo[1,5-a]quinoxalin-13-one [Example 158-P1]”, the “ΔTm (°C)” value in series [1] is 12.03 °C. Moreover, the Selectivity in series [3] turned out to be 81. In addition, the half-inhibitory concentration (IC50) in series [3] (MTAP Knockout HCT116 cells, proliferation inhibition, Cell Titer-Glo, read-out: MTAP Knockout HCT116 IC50) is 8.7 nM; in the series with HCT116 wild-type cells (HCT116 wild-type cells, proliferation inhibition, Cell Titer-Glo, read-out: HCT116 IC50) it was 708 nM.
